# DBAASP
# How the values were obtained:
# Experiment in all cases: ≥ marks a high value that may be exact or a test limit, other limits are often not marked, values filed in µg/mL are converted to µM
# Escherichia coli = tested on: Escherichia coli
# Bacillus cereus = tested on: Bacillus cereus
# Pseudomonas aeruginosa = tested on: Pseudomonas aeruginosa
# [1] = tested on: Staphylococcus aureus ATCC 29213
# [2] = tested on: Escherichia coli ATCC 25922
# [3] = tested on: Pseudomonas aeruginosa ATCC 27853
# [4] = tested on: Staphylococcus epidermidis ATCC 12228
# [5] = tested on: Candida albicans ATCC 2002
Structure (SMILES),MIC [1] [µM],MIC [2] [µM],also measured
CC[C@H](C)[C@H](NC(=O)[C@H](CCCCN)NC(=O)[C@H](Cc1ccccc1)NC(=O)[C@@H](NC(=O)[C@H](C)NC(=O)[C@@H]1CCCN1)C(C)C)C(=O)N[C@@H](C)C(=O)N[C@@H](CO)C(=O)N[C@@H](CCCCN)C(=O)N[C@H](C(=O)N[C@H](C(=O)N1CCC[C@H]1C(=O)N[C@@H](CO)C(=O)N[C@H](C(=O)N[C@@H](Cc1ccc(O)cc1)C(=O)N[C@@H](CS)C(=O)N[C@@H](CCCCN)C(=O)N[C@H](C(=O)N[C@@H](CO)C(=O)N[C@@H](CCCN=C(N)N)C(=O)O)C(C)C)C(C)C)C(C)C)C(C)C [PAVFKIASKVVPSVYCKVSR],,,MIC (Escherichia coli): 58.8 µM; MIC (Bacillus cereus): ≥ 118 µM
CC[C@H](C)[C@H](NC(=O)[C@H](Cc1ccccc1)NC(=O)[C@H](CO)NC(=O)[C@H](CC(N)=O)NC(=O)[C@H](Cc1c[nH]c2ccccc12)NC(=O)[C@@H](N)CCCCN)C(=O)N[C@@H](CCCCN)C(=O)N[C@@H](CCCCN)C(=O)N[C@@H](CC(C)C)C(=O)N[C@H](C(=O)N[C@@H](CO)C(=O)N[C@@H](CCCCN)C(=O)N[C@@H](Cc1ccccc1)C(=O)N[C@@H](CC(C)C)C(=O)N[C@@H](Cc1cnc[nH]1)C(=O)N[C@@H](CO)C(=O)N[C@@H](C)C(=O)N[C@@H](CCCCN)C(=O)N[C@@H](CCCCN)C(=O)N[C@@H](Cc1ccccc1)C(N)=O)[C@@H](C)O [KWNSFIKKLTSKFLHSAKKF],,,MIC (Pseudomonas aeruginosa): 5.13 µM
CC[C@H](C)[C@H](NC(=O)[C@H](CCCCN)NC(=O)[C@H](CCCCN)NC(=O)[C@@H](N)CCC(N)=O)C(=O)N[C@@H](CCCN=C(N)N)C(=O)N[C@@H](C)C(=O)N[C@@H](CCCN=C(N)N)C(=O)N[C@@H](CC(C)C)C(=O)N[C@@H](CO)C(=O)N[C@@H](C)C(=O)O [QKKIRARLSA],> 54.7,> 54.7,MIC [3]: > 54.7 µM
CC[C@H](C)[C@H](NC(=O)CN)C(=O)N[C@@H](CCCCN)C(=O)N[C@@H](CCCCN)C(=O)N[C@@H](Cc1c[nH]c2ccccc12)C(=O)N[C@@H](CC(C)C)C(=O)N[C@@H](Cc1cnc[nH]1)C(=O)N[C@@H](CO)C(=O)N1CCC[C@H]1C(=O)N[C@@H](CCCCN)C(=O)N[C@@H](CCCCN)C(=O)N[C@@H](Cc1ccccc1)C(=O)NCC(=O)N[C@@H](CCCCN)C(=O)N[C@@H](CCCCN)C(=O)N[C@@H](Cc1ccccc1)C(=O)N1CCC[C@H]1C(=O)N[C@@H](CCCCN)C(=O)N[C@@H](CCCCN)C(=O)N[C@H](C(=O)N[C@@H](CCSC)C(=O)N[C@@H](CC(N)=O)C(=O)N[C@@H](CO)C(N)=O)[C@@H](C)CC [GIKKWLHSPKKFGKKFPKKIMNS],,> 80,MIC [4]: 10 µM
CC[C@H](C)[C@H](NC(=O)CN)C(=O)N[C@@H](CCCCN)C(=O)N[C@@H](CCCCN)C(=O)N[C@@H](Cc1c[nH]c2ccccc12)C(=O)N1CCC[C@H]1C(=O)N[C@@H](Cc1cnc[nH]1)C(=O)N[C@@H](CCCCN)C(=O)N1CCC[C@H]1C(=O)N[C@@H](CCCCN)C(=O)N[C@@H](CCCCN)C(=O)N[C@@H](Cc1ccccc1)C(=O)NCC(=O)N[C@@H](CCCCN)C(=O)N[C@@H](CCCCN)C(=O)N[C@@H](Cc1ccccc1)C(=O)N[C@H](C(=O)N[C@@H](CCCCN)C(=O)N[C@@H](CCCCN)C(=O)N[C@H](C(=O)N[C@@H](CCCCN)C(=O)N[C@@H](CC(N)=O)C(=O)N[C@@H](CO)C(N)=O)[C@@H](C)CC)C(C)C [GIKKWPHKPKKFGKKFVKKIKNS],,40,MIC [4]: 10 µM
CC[C@H](C)[C@H](NC(=O)[C@@H](NC(=O)[C@@H](NC(=O)[C@@H]1CCCN1C(=O)[C@H](Cc1c[nH]c2ccccc12)NC(=O)[C@H](Cc1ccccc1)NC(=O)[C@H](CCCN=C(N)N)NC(=O)[C@H](CCCCN)NC(=O)[C@@H](NC(=O)[C@@H](N)CCCN=C(N)N)[C@@H](C)CC)C(C)C)C(C)C)C(=O)N[C@@H](CCCN=C(N)N)C(=O)N[C@H](C(=O)N[C@H](C(=O)N[C@H](C(=O)N[C@@H](C)C(=O)NCC(=O)N[C@@H](Cc1ccc(O)cc1)C(=O)N[C@@H](CC(N)=O)C(=O)N[C@@H](CC(C)C)C(=O)N[C@@H](Cc1ccc(O)cc1)C(=O)N[C@@H](CCCN=C(N)N)C(=O)O)C(C)C)C(C)C)[C@@H](C)O [RIKRFWPVVIRTVVAGYNLYR],,3.6,MIC [5]: 3.6 µM
CC[C@H](C)[C@H](NC(=O)[C@H](CO)NC(=O)[C@H](CCCCN)NC(=O)[C@@H](NC(=O)[C@@H](NC(=O)[C@@H](NC(=O)[C@@H](NC(=O)[C@H](CCCCN)NC(=O)[C@@H](NC(=O)[C@@H](NC(=O)[C@@H](N)CCCCN)[C@@H](C)CC)C(C)C)C(C)C)[C@@H](C)CC)[C@@H](C)O)C(C)C)C(=O)N[C@@H](CO)C(=O)N1CCC[C@H]1C(=O)N[C@@H](C)C(=O)N[C@@H](CO)C(=O)N[C@@H](CC(C)C)C(=O)N[C@H](C(=O)N1CCC[C@H]1C(=O)N[C@H](C(=O)N[C@@H](Cc1ccccc1)C(=O)O)C(C)C)C(C)C [KIVKVITVKSISPASLVPVF],,,MIC (Escherichia coli): > 60.2 µM; MIC (Bacillus cereus): ≥ 60.2 µM
CC(C)[C@H](NC(=O)[C@H](Cc1c[nH]c2ccccc12)NC(=O)[C@H](Cc1c[nH]c2ccccc12)NC(=O)[C@@H](N)CCCN=C(N)N)C(=O)N[C@@H](C)C(=O)N[C@@H](Cc1c[nH]c2ccccc12)C(=O)N[C@@H](CCCN=C(N)N)C(=O)N[C@@H](CC(N)=O)C(=O)N[C@@H](CCCN=C(N)N)C(=O)O [RWWVAWRNR],94,47,
CC[C@H](C)[C@H](NC(=O)[C@H](CCCN=C(N)N)NC(=O)[C@H](CCC(N)=O)NC(=O)[C@H](CCC(N)=O)NC(=O)[C@@H](NC(=O)[C@H](CCCN=C(N)N)NC(=O)[C@H](CCCCN)NC(=O)[C@@H](N)Cc1ccccc1)[C@@H](C)CC)C(=O)N[C@@H](CCCCN)C(=O)N[C@@H](CC(=O)O)C(=O)N[C@@H](Cc1ccccc1)C(=O)N[C@@H](CC(C)C)C(=O)N[C@@H](CCCN=C(N)N)C(=O)O [FKRIQQRIKDFLR],> 40,5,
CC[C@H](C)[C@H](NC(=O)[C@@H](NC(=O)[C@H](C)NC(=O)[C@H](CCCN=C(N)N)NC(=O)[C@H](CC(N)=O)NC(=O)[C@H](Cc1ccccc1)NC(=O)[C@H](CO)NC(=O)[C@@H](N)C(C)C)C(C)C)C(=O)N[C@@H](Cc1cnc[nH]1)C(=O)N[C@@H](CO)C(=O)N[C@@H](CC(C)C)C(=O)N[C@@H](CC(C)C)C(=O)NCC(N)=O [VSFNRAVIHSLLG],> 496,> 496,
CC[C@H](C)[C@H](NC(=O)[C@H](C)NC(=O)[C@H](CCCCN)NC(=O)[C@@H](N)CCC(N)=O)C(=O)N[C@@H](CCCN=C(N)N)C(=O)N[C@H](C(=O)N[C@@H](CCCN=C(N)N)C(=O)N[C@@H](CC(C)C)C(=O)N[C@@H](CO)C(=O)N[C@@H](C)C(=O)O)C(C)C [QKAIRVRLSA],> 56.1,7.01,MIC [3]: 7.01 µM
CC[C@H](C)[C@H](NC(=O)[C@H](CCSC)NC(=O)[C@H](C)NC(=O)[C@@H]1CCCN1C(=O)[C@@H](NC(=O)[C@@H](NC(=O)[C@H](CCCCN)NC(=O)[C@@H](NC(=O)[C@H](CC(C)C)NC(=O)CNC(=O)CNC(=O)[C@H](CC(C)C)NC(=O)[C@@H](N)Cc1ccccc1)[C@@H](C)CC)[C@@H](C)CC)C(C)C)C(=O)N[C@@H](CS)C(=O)N[C@@H](C)C(=O)N[C@H](C(=O)N[C@H](C(=O)N[C@@H](CCCCN)C(=O)N[C@@H](CCCCN)C(=O)O)[C@@H](C)O)C(C)C [FLGGLIKIVPAMICAVTKK],63.9,128,MIC [3]: 63.9 µM

# Continued, in another order:
MIC [1] [µM],MIC [2] [µM],Structure (SMILES),also measured
,10,CC[C@H](C)[C@H](NC(=O)CN)C(=O)N[C@@H](CCCCN)C(=O)N[C@@H](CCCCN)C(=O)N[C@@H](Cc1c[nH]c2ccccc12)C(=O)N1CCC[C@H]1C(=O)N[C@@H](Cc1cnc[nH]1)C(=O)N[C@@H](CO)C(=O)N1CCC[C@H]1C(=O)N[C@@H](CCCCN)C(=O)N[C@@H](CCCCN)C(=O)N[C@@H](Cc1ccccc1)C(=O)NCC(=O)N[C@@H](CCCCN)C(=O)N[C@@H](CCCCN)C(=O)N[C@@H](Cc1ccccc1)C(=O)N[C@H](C(=O)N[C@@H](CCCCN)C(=O)N[C@@H](CCCCN)C(=O)N[C@H](C(=O)N[C@@H](CCSC)C(=O)N[C@@H](CC(N)=O)C(=O)N[C@@H](CO)C(N)=O)[C@@H](C)CC)C(C)C [GIKKWPHSPKKFGKKFVKKIMNS],MIC [4]: 10 µM
10,14.1,CC(=O)N[C@@H](CCCCN)C(=O)N[C@@H](CC(C)C)C(=O)N[C@@H](CC(C)C)C(=O)N[C@@H](CCCCN)C(=O)N[C@@H](CC(C)C)C(=O)N[C@@H](CC(C)C)C(=O)N[C@@H](CCCCN)C(=O)N[C@@H](CCCCN)C(=O)N[C@@H](CC(C)C)C(=O)N[C@@H](CC(C)C)C(=O)N[C@@H](CCCCN)C(=O)N[C@@H](CC(C)C)C(=O)N1CCC[C@H]1C(=O)N[C@@H](CCCCN)C(N)=O [KLLKLLKKLLKLPK],
10,10,CC(C)C[C@H](NC(=O)[C@H](CC(C)C)NC(=O)[C@H](CCCCN)NC(=O)[C@H](CCCCN)NC(=O)[C@H](CC(C)C)NC(=O)[C@H](CC(C)C)NC(=O)[C@H](CCCCN)NC(=O)[C@H](CC(C)C)NC(=O)[C@H](CC(C)C)NC(=O)[C@H](CCCCN)NC(=O)[C@H](CCCCN)NC(=O)[C@@H](N)CC(C)C)C(=O)N[C@@H](CCCCN)C(=O)N[C@@H](C)C(=O)N[C@@H](C)C(=O)NCC(=O)O [LKKLLKLLKKLLKAAG],
20,80,NC(=O)[C@H](Cc1ccccc1)NC(=O)[C@H](Cc1ccccc1)NC(=O)[C@H](Cc1ccccc1)NC(=O)[C@H](Cc1ccccc1)NC(=O)[C@@H]1CCCN1C(=O)[C@H](CCCN=C(N)N)NC(=O)[C@@H]1CCCN1C(=O)[C@H](CCCN=C(N)N)NC(=O)[C@@H]1CCCN1C(=O)[C@H](CCCN=C(N)N)NC(=O)[C@@H]1CCCN1C(=O)[C@H](CCCN=C(N)N)NC(=O)[C@@H](N)CCCN=C(N)N [RRPRPRPRPFFFF],MIC [3]: 40 µM
